Publication PMC11356900, “Synthesis, Structural Properties and Biological Activities of Novel Hydrazones of 2-, 3-, 4-Iodobenzoic Acid” (Molecules, 2024)
Values after ≈ are worked out from the molar mass of the structure shown.

Experiments:
L929 cell line = experiment: MTT cytotoxicity assay; format: cell-based, mouse; conditions: for cytotoxicity: L929, 24 h culture
Experimental: Among all the newly synthesized compounds, four compounds designated as: 14, 20, 21 and 27 were selected for further testing of their cytotoxic properties at the doses of 10, 25, 50, 75 and 100 µM. The cytotoxic properties of the above compounds were tested on the cancer cell lines, i.e., A549 (ECACC 86012804) (non-small-cell lung cancer), T47D (ECACC 85102201) (breast cancer), HeLa (ATCC® CCL-2™) (cervical cancer) and normal line L929 (NCTC clone 929, ATCC® CCL-1™) (mouse fibroblasts) using the MTT test for 24- and 48 h cultures.
A549 (ECACC 86012804) (non-small-cell lung cancer) and T47D (ECACC 85102201) (breast cancer) were obtained from ECACC and propagated in Dulbecco’s Minimal Essential Medium, supplemented with 2 mM of glutamine, antibiotics ([…] streptomycin, 1% of 100 U/L penicillin) and 10% Fetal Bovine Serum. HeLa (ATCC® CCL-2™) (cervical cancer) and L929 (NCTC clone 929, ATCC® CCL-1™) (mouse fibroblasts) cell lines were obtained from ATCC and propagated in the Eagle Minimal Essential Medium supplemented with antibiotics ([…] streptomycin, 1% of 100 U/L penicillin) and with 10% and 5% FBS, respectively. The cell line was routinely grown in 75 cm^2 tissue culture flasks and kept in an incubator (humidified atmosphere of 5% CO2 at 37 °C). All examined cell lines were tested against mycoplasma contamination with microbiological assays.
The cell viability of tested compounds (14, 20, 21 and 27) was assessed by the MTT assay. In brief, the exponentially growing cells were plated in 100 μL/well in 96-well plates. After 24 h culturing, the cells were treated with different concentrations of compounds (range 10–100 μM). After 24 and 48 h of incubation, 10 μL of 5 mg/mL MTT was added to each well and the plates were incubated at 37 °C for additional 4 h. The medium was subsequently removed, the purple-colored precipitates of formazan were dissolved in 100 μL of DMSO. The color absorbance was recorded at 570 nm using a BioTek model EPOCH ELISA plate reader. All experiments were performed in triplicate. The absorbance values were in the range of linearity of the Lambert–Beer law.

[1] = system: Staphylococcus aureus ATCC 25923; experiment: Broth microdilution MIC/MBC; conditions: Staphylococcus aureus, ATCC25923
[2] = system: Bacillus subtilis ATCC 6633; experiment: Broth microdilution MIC/MBC; conditions: ATCC6633
[3] = system: Proteus mirabilis ATCC 12453; experiment: Broth microdilution MIC/MBC; conditions: ATCC12453
[4] = system: Salmonella typhimurium ATCC 14028; experiment: Broth microdilution MIC/MBC; conditions: for MBC / MIC: Salmonella enterica; for MBC/MIC: Salmonella typhimurium ATCC 14028

SMILES: O=C(N/N=C/c1cc(I)cc(I)c1O)c1ccccc1I [Compound 14, N-[(3,5-diiodo-2-hydroxyphenyl)methylidene]-2-iodobenzohydrazide]
- cell proliferation (L929 cell line; L929, 24h, 10 µM, Repeat No 1): 94%
- cell proliferation (L929 cell line; L929, 24h, 10 µM, Repeat No 2): 94%
- cell proliferation (L929 cell line; L929, 24h, 25 µM, Repeat No 1): 100%
- cell proliferation (L929 cell line; L929, 24h, 25 µM, Repeat No 2): 89%
- cell proliferation (L929 cell line; L929, 24h, 50 µM, Repeat No 1): 85%
- cell proliferation (L929 cell line; L929, 24h, 50 µM, Repeat No 2): 73%
- cell proliferation (L929 cell line; L929, 24h, 75 µM, Repeat No 1): 77%
- cell proliferation (L929 cell line; L929, 24h, 75 µM, Repeat No 2): 69%
- cell proliferation (L929 cell line; L929, 24h, 100 µM, Repeat No 1): 91%
- cell proliferation (L929 cell line; L929, 24h, 100 µM, Repeat No 2): 97%
- cytotoxicity (L929 cell line; dose of 75 µM): around 40%
- cytotoxicity (L929 cell line; tested doses 10–100 µM): approximately 20%
- cell proliferation (L929 cell line; L929, 48h, 10 µM, Repeat No 1): 75%
- cell proliferation (L929 cell line; L929, 48h, 10 µM, Repeat No 2): 99%
- cell proliferation (L929 cell line; L929, 48h, 25 µM, Repeat No 1): 106%
- cell proliferation (L929 cell line; L929, 48h, 25 µM, Repeat No 2): 99%
- cell proliferation (L929 cell line; L929, 48h, 50 µM, Repeat No 1): 83%
- cell proliferation (L929 cell line; L929, 48h, 50 µM, Repeat No 2): 98%
- cell proliferation (L929 cell line; L929, 48h, 75 µM, Repeat No 1): 83%
- cell proliferation (L929 cell line; L929, 48h, 75 µM, Repeat No 2): 89%
- cell proliferation (L929 cell line; L929, 48h, 100 µM, Repeat No 1): 94%
- cell proliferation (L929 cell line; L929, 48h, 100 µM, Repeat No 2): 101%
- melting point: 241 to 245 °C
- MBC [1]: 250 mg/L (≈ 405 µM)
- MIC [1]: 125 mg/L (≈ 202 µM)
- MBC [2]: 500 mg/L (≈ 809 µM)
- MIC [2]: 500 mg/L (≈ 809 µM)

SMILES: O=C(N/N=C/c1cc(Cl)cc(I)c1O)c1cccc(I)c1 [Compound 20, N-[(5-chloro-2-hydroxy-3-iodophenyl)methylidene]-3-iodobenzohydrazide]
- cell proliferation (L929 cell line; L929, 24h, 10 µM, Repeat No 1): 99%
- cell proliferation (L929 cell line; L929, 24h, 10 µM, Repeat No 2): 104%
- cell proliferation (L929 cell line; L929, 24h, 25 µM, Repeat No 1): 89%
- cell proliferation (L929 cell line; L929, 24h, 25 µM, Repeat No 2): 95%
- cell proliferation (L929 cell line; L929, 24h, 50 µM, Repeat No 1): 87%
- cell proliferation (L929 cell line; L929, 24h, 50 µM, Repeat No 2): 112%
- cell proliferation (L929 cell line; L929, 24h, 75 µM, Repeat No 1): 103%
- cell proliferation (L929 cell line; L929, 24h, 75 µM, Repeat No 2): 96%
- cell proliferation (L929 cell line; L929, 24h, 100 µM, Repeat No 1): 86%
- cell proliferation (L929 cell line; L929, 24h, 100 µM, Repeat No 2): 94%
- cytotoxicity (L929 cell line; tested doses 10–100 µM): approximately 20%
- cell proliferation (L929 cell line; L929, 48h, 10 µM, Repeat No 1): 91%
- cell proliferation (L929 cell line; L929, 48h, 10 µM, Repeat No 2): 102%
- cell proliferation (L929 cell line; L929, 48h, 25 µM, Repeat No 1): 88%
- cell proliferation (L929 cell line; L929, 48h, 25 µM, Repeat No 2): 93%
- cell proliferation (L929 cell line; L929, 48h, 50 µM, Repeat No 1): 94%
- cell proliferation (L929 cell line; L929, 48h, 50 µM, Repeat No 2): 99%
- cell proliferation (L929 cell line; L929, 48h, 75 µM, Repeat No 1): 94%
- cell proliferation (L929 cell line; L929, 48h, 75 µM, Repeat No 2): 99%
- cell proliferation (L929 cell line; L929, 48h, 100 µM, Repeat No 1): 87%
- cell proliferation (L929 cell line; L929, 48h, 100 µM, Repeat No 2): 84%
- melting point: 205 to 208 °C
- MBC [1]: 3.91 mg/L (≈ 7.43 µM)
- MIC [1]: 1.95 mg/L (≈ 3.7 µM)
- MBC [2]: 31.2 mg/L (≈ 59.4 µM)
- MIC [2]: 7.81 mg/L (≈ 14.8 µM)
- MBC [3]: 1000 mg/L (≈ 1900 µM)
- MBC/MIC [3]: 2
- MIC [3]: 500 mg/L (≈ 950 µM)
- MBC [4]: > 1000 mg/L
- MIC [4]: 1000 mg/L (≈ 1900 µM)
- MBC/MIC [4]: > 1

SMILES: O=C(N/N=C/c1cc(Br)cc(Br)c1O)c1cccc(I)c1 [Compound 21, N-[(3,5-dibromo-2-hydroxyphenyl)methylidene]-3-iodobenzohydrazide]
- cell proliferation (L929 cell line; L929, 24h, 10 µM, Repeat No 1): 96%
- cell proliferation (L929 cell line; L929, 24h, 10 µM, Repeat No 2): 102%
- cell proliferation (L929 cell line; L929, 24h, 25 µM, Repeat No 1): 101%
- cell proliferation (L929 cell line; L929, 24h, 25 µM, Repeat No 2): 97%
- cell proliferation (L929 cell line; L929, 24h, 50 µM, Repeat No 1): 100%
- cell proliferation (L929 cell line; L929, 24h, 50 µM, Repeat No 2): 106%
- cell proliferation (L929 cell line; L929, 24h, 75 µM, Repeat No 1): 118%
- cell proliferation (L929 cell line; L929, 24h, 75 µM, Repeat No 2): 109%
- cell proliferation (L929 cell line; L929, 24h, 100 µM, Repeat No 1): 89%
- cell proliferation (L929 cell line; L929, 24h, 100 µM, Repeat No 2): 96%
- cytotoxicity (L929 cell line; tested doses 10–100 µM): approximately 20%
- cell proliferation (L929 cell line; L929, 48h, 10 µM, Repeat No 1): 94%
- cell proliferation (L929 cell line; L929, 48h, 10 µM, Repeat No 2): 98%
- cell proliferation (L929 cell line; L929, 48h, 25 µM, Repeat No 1): 89%
- cell proliferation (L929 cell line; L929, 48h, 25 µM, Repeat No 2): 97%
- cell proliferation (L929 cell line; L929, 48h, 50 µM, Repeat No 1): 89%
- cell proliferation (L929 cell line; L929, 48h, 50 µM, Repeat No 2): 88%
- cell proliferation (L929 cell line; L929, 48h, 75 µM, Repeat No 1): 104%
- cell proliferation (L929 cell line; L929, 48h, 75 µM, Repeat No 2): 96%
- cell proliferation (L929 cell line; L929, 48h, 100 µM, Repeat No 1): 89%
- cell proliferation (L929 cell line; L929, 48h, 100 µM, Repeat No 2): 84%
- melting point: 210 to 211 °C
- MBC [1]: 31.2 mg/L (≈ 59.6 µM)
- MIC [1]: 7.81 mg/L (≈ 14.9 µM)
- MBC [2]: 31.2 mg/L (≈ 59.6 µM)
- MIC [2]: 7.81 mg/L (≈ 14.9 µM)
- MIC [3]: > 1000 mg/L
- MIC [4]: > 1000 mg/L

SMILES: O=C(N/N=C/c1cc(Cl)cc(I)c1O)c1ccc(I)cc1 [Compound 27, N-[(5-chloro-2-hydroxy-3-iodophenyl)methylidene]-4-iodobenzohydrazide]
- cell proliferation (L929 cell line; L929, 24h, 10 µM, Repeat No 1): 101%
- cell proliferation (L929 cell line; L929, 24h, 10 µM, Repeat No 2): 89%
- cell proliferation (L929 cell line; L929, 24h, 25 µM, Repeat No 1): 96%
- cell proliferation (L929 cell line; L929, 24h, 25 µM, Repeat No 2): 92%
- cell proliferation (L929 cell line; L929, 24h, 50 µM, Repeat No 1): 95%
- cell proliferation (L929 cell line; L929, 24h, 50 µM, Repeat No 2): 81%
- cell proliferation (L929 cell line; L929, 24h, 75 µM, Repeat No 1): 103%
- cell proliferation (L929 cell line; L929, 24h, 75 µM, Repeat No 2): 107%
- cell proliferation (L929 cell line; L929, 24h, 100 µM, Repeat No 1): 92%
- cell proliferation (L929 cell line; L929, 24h, 100 µM, Repeat No 2): 91%
- cytotoxicity (L929 cell line; tested doses 10–100 µM): approximately 20%
- cell proliferation (L929 cell line; L929, 48h, 10 µM, Repeat No 1): 92%
- cell proliferation (L929 cell line; L929, 48h, 10 µM, Repeat No 2): 89%
- cell proliferation (L929 cell line; L929, 48h, 25 µM, Repeat No 1): 95%
- cell proliferation (L929 cell line; L929, 48h, 25 µM, Repeat No 2): 99%
- cell proliferation (L929 cell line; L929, 48h, 50 µM, Repeat No 1): 92%
- cell proliferation (L929 cell line; L929, 48h, 50 µM, Repeat No 2): 91%
- cell proliferation (L929 cell line; L929, 48h, 75 µM, Repeat No 1): 99%
- cell proliferation (L929 cell line; L929, 48h, 75 µM, Repeat No 2): 92%
- cell proliferation (L929 cell line; L929, 48h, 100 µM, Repeat No 1): 87%
- cell proliferation (L929 cell line; L929, 48h, 100 µM, Repeat No 2): 92%
- melting point: 200 to 201 °C
- MBC [1]: 250 mg/L (≈ 475 µM)
- MIC [1]: 62.5 mg/L (≈ 119 µM)
- MBC [2]: 500 mg/L (≈ 950 µM)
- MIC [2]: 125 mg/L (≈ 237 µM)
- MBC [3]: 1000 mg/L (≈ 1900 µM)
- MBC/MIC [3]: 2
- MIC [3]: 500 mg/L (≈ 950 µM)
- MBC [4]: 1000 mg/L (≈ 1900 µM)
- MIC [4]: 500 mg/L (≈ 950 µM)
- MBC/MIC [4]: 2
